Experimental data taken from patent US20030143729A1 (Synaptic Pharmaceutical Corporation, priority 1992, published 2003).
Read-outs that look alike come from different tables or passages of the source.

Key:
hBGT-1 [1] = biological target: T1, hBGT-1 (Homo sapiens, UniProt P48065); assay: cell-based
T1 sequence (P48065 1-614): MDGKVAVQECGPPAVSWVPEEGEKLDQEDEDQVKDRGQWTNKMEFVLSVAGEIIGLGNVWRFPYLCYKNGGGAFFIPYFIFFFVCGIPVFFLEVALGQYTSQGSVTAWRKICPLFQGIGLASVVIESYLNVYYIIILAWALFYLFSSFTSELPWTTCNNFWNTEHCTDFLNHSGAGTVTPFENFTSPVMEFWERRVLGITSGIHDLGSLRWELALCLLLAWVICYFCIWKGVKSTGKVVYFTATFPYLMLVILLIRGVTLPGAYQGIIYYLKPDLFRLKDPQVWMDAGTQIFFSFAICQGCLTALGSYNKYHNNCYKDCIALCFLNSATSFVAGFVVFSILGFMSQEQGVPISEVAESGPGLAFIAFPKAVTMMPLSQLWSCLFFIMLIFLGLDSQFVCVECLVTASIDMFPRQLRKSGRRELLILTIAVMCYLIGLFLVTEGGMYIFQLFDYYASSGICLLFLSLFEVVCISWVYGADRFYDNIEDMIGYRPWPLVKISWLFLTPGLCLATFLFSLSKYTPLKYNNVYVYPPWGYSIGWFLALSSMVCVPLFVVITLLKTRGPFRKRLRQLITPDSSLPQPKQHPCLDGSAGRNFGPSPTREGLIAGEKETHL
Procedure: (§1) Cells were grown under standard conditions (37° C., 5% CO2) in Dulbecco's modified Eagles's medium (GIBCO, Grand Island, N.Y.).
(§2) Cells grown in 24-well plates were washed 3× with HEPES-buffered saline (HBS, in mM: NaCl, 150; HEPES, 20; CaCl2, 1; glucose, 10; KCl, 5; MgCl2, 1; pH 7.4) and allowed to equilibrate on a 37° C. slide warmer. After 10 minutes the medium was removed and unlabeled drugs in HBS were added (450 μl/well). […] Plates were incubated at 37° C. for 10 minutes, then washed rapidly 3× with ice-cold HBS, using a 24-position plate washer (Brandel, Gaithersburg, Mass.; model PW-12). Cells were solubilized with 0.05% sodium deoxycholate/0.1N NaOH (0.25 ml/well), an aliquot neutralized with 1N HCl, and radioactivity was determined by scintillation counting. Protein was quantified in an aliquot of the solubilized cells using a BIO-RAD protein assay kit, according to the manufacturer's directions.
(§3) Lipophilic inhibitors were dissolved in DMSO.
(§4) Data Analysis: Competition curves were conducted in duplicate, using 10 concentrations of unlabeled drug.

human GAT-1 [2] = biological target: T2, human GAT-1 (Homo sapiens, UniProt P30531); conditions: read-out: IC50 for inhibition of [3H]GABA uptake, human GAT-1
T2 sequence (P30531 whole entry): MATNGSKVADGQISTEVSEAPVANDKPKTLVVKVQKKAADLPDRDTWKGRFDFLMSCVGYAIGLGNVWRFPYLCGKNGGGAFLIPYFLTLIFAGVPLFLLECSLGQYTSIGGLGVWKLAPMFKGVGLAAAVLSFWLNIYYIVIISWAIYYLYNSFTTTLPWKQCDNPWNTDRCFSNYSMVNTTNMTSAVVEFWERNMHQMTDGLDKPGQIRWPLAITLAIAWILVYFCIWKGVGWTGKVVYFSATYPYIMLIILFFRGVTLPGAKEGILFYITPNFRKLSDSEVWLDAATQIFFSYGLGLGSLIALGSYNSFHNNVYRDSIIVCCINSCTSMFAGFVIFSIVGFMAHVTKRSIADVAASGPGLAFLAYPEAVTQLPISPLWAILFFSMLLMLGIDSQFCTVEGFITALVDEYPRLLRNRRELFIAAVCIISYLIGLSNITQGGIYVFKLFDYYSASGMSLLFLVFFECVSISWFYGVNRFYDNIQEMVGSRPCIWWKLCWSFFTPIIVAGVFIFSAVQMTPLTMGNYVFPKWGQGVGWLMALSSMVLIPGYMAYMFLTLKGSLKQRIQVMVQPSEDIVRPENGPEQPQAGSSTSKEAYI
Procedure: as §1, §2, §3, §4

hBGT-1 [3] = biological target: T1, hBGT-1; conditions: read-out: IC50 for inhibition of [3H]GABA uptake, human BGT-1; stable cell line; 50 nM [3H]GABA
Procedure: as §1, §2, §3, §4

animals = conditions: in vivo; cited from earlier work
human GAT-1 [4] = biological target: T2, human GAT-1; assay: cell-based
Procedure: as §1, §2, §3, §4

For `O=C(O)C1=CCCNC1` [guvacine], which IC50 (hBGT-1 [1]) is on record?
The IC50 was over 1000 µM.

Which results are given for `O=C(O)C1=CCCN(CCON=C(c2ccccc2)c2ccccc2)C1` [NNC-711]?
IC50 (human GAT-1 [2]): 0.04 ± 0.01 µM; IC50 (hBGT-1 [3]): 622 ± 265 µM; anticonvulsive activity in animals (animals): anticonvulsive activity

For `NCCC(=O)O` [β-alanine], which IC50 (human GAT-1 [4]) is on record?
Its IC50 is 5690 ± 1890 µM.

And the IC50 (hBGT-1 [1]; IC50 at hBGT-1)?
The IC50 was over 1000 µM.

What about the IC50 (hBGT-1 [1]; IC50 for inhibition of [3H]GABA uptake, human BGT-1, stable cell line, 50 nM [3H]GABA) of the same molecule?
Its IC50 is 1320 ± 224 µM.
